Key:
Type in all cases: functional
[1] = tested on: UACC-62; test: Anticancer activity against Homo sapiens (human) UACC62 cells assessed as cell growth promotion at 10 uM after 48 hr by SRB assay
[2] = tested on: UACC-257; test: Anticancer activity against Homo sapiens (human) UACC257 cells assessed as cell growth promotion at 10 uM after 48 hr by SRB assay
[3] = tested on: SK-MEL-5; test: Anticancer activity against Homo sapiens (human) SK-MEL-5 cells assessed as cell growth promotion at 10 uM after 48 hr by SRB assay
[4] = tested on: Hs-578T; test: Anticancer activity against Homo sapiens (human) Hs 578T cells assessed as cell growth promotion at 10 uM after 48 hr by SRB assay
[5] = tested on: MDA-MB-231; test: Anticancer activity against Homo sapiens (human) MDA-MB-231/ATCC cells assessed as cell growth promotion at 10 uM after 48 hr by SRB assay
[6] = tested on: MCF7; test: Anticancer activity against Homo sapiens (human) MCF7 cells assessed as cell growth promotion at 10 uM after 48 hr by SRB assay
[7] = tested on: PC-3; test: Anticancer activity against Homo sapiens (human) PC3 cells assessed as cell growth promotion at 10 uM after 48 hr by SRB assay
[8] = tested on: DU-145; test: Anticancer activity against Homo sapiens (human) DU145 cells assessed as cell growth promotion at 10 uM after 48 hr by SRB assay
[9] = tested on: TK-10; test: Anticancer activity against Homo sapiens (human) TK10 cells assessed as cell growth promotion at 10 uM after 48 hr by SRB assay
[10] = tested on: SN12C; test: Anticancer activity against Homo sapiens (human) SN12C cells assessed as cell growth promotion at 10 uM after 48 hr by SRB assay
[11] = tested on: CAKI-1; test: Anticancer activity against Homo sapiens (human) CAKI-1 cells assessed as cell growth promotion at 10 uM after 48 hr by SRB assay
[12] = tested on: ACHN; test: Anticancer activity against Homo sapiens (human) ACHN cells assessed as cell growth promotion at 10 uM after 48 hr by SRB assay
[13] = tested on: 786-0; test: Anticancer activity against Homo sapiens (human) 786-0 cells assessed as cell growth promotion at 10 uM after 48 hr by SRB assay
[14] = tested on: SK-OV-3; test: Anticancer activity against Homo sapiens (human) SKOV3 cells assessed as cell growth promotion at 10 uM after 48 hr by SRB assay
[15] = tested on: NCI/ADR-RES; test: Anticancer activity against Homo sapiens (human) NCI/ADR-RES cells assessed as cell growth promotion at 10 uM after 48 hr by SRB assay
[16] = tested on: OVCAR-4; test: Anticancer activity against Homo sapiens (human) OVCAR4 cells assessed as cell growth promotion at 10 uM after 48 hr by SRB assay
[17] = tested on: OVCAR-3; test: Anticancer activity against Homo sapiens (human) OVCAR3 cells assessed as cell growth promotion at 10 uM after 48 hr by SRB assay
[18] = tested on: MDA-MB-468; test: Anticancer activity against Homo sapiens (human) MDA-MB-468 cells assessed as cell growth promotion at 10 uM after 48 hr by SRB assay
[19] = tested on: HCT-15; test: Anticancer activity against Homo sapiens (human) HCT15 cells assessed as cell growth promotion at 10 uM after 48 hr by SRB assay
[20] = tested on: HCT-116; test: Anticancer activity against Homo sapiens (human) HCT116 cells assessed as cell growth promotion at 10 uM after 48 hr by SRB assay
[21] = tested on: HCC 2998; test: Anticancer activity against Homo sapiens (human) HCC2998 cells assessed as cell growth promotion at 10 uM after 48 hr by SRB assay
[22] = tested on: COLO 205; test: Anticancer activity against Homo sapiens (human) COLO205 cells assessed as cell growth promotion at 10 uM after 48 hr by SRB assay
[23] = tested on: NCI-H522; test: Anticancer activity against Homo sapiens (human) NCI-H522 cells assessed as cell growth promotion at 10 uM after 48 hr by SRB assay
[24] = tested on: HOP-92; test: Anticancer activity against Homo sapiens (human) HOP92 cells assessed as cell growth promotion at 10 uM after 48 hr by SRB assay
[25] = tested on: HOP-62; test: Anticancer activity against Homo sapiens (human) HOP62 cells assessed as cell growth promotion at 10 uM after 48 hr by SRB assay
[26] = tested on: EKVX; test: Anticancer activity against Homo sapiens (human) EKVX cells assessed as cell growth promotion at 10 uM after 48 hr by SRB assay
[27] = tested on: A549; test: Anticancer activity against Homo sapiens (human) A549/ATCC cells assessed as cell growth promotion at 10 uM after 48 hr by SRB assay
[28] = tested on: RPMI-8226; test: Anticancer activity against Homo sapiens (human) RPMI8226 cells assessed as cell growth promotion at 10 uM after 48 hr by SRB assay
[29] = tested on: MOLT-4; test: Anticancer activity against Homo sapiens (human) MOLT4 cells assessed as cell growth promotion at 10 uM after 48 hr by SRB assay
[30] = tested on: K562; test: Anticancer activity against Homo sapiens (human) K562 cells assessed as cell growth promotion at 10 uM after 48 hr by SRB assay
[31] = tested on: SK-MEL-2; test: Anticancer activity against Homo sapiens (human) SK-MEL-2 cells assessed as cell growth promotion at 10 uM after 48 hr by SRB assay
[32] = tested on: MDA-MB-435; test: Anticancer activity against Homo sapiens (human) MDA-MB-435 cells assessed as cell growth promotion at 10 uM after 48 hr by SRB assay
[33] = tested on: Malme-3M; test: Anticancer activity against Homo sapiens (human) MALME-3M cells assessed as cell growth promotion at 10 uM after 48 hr by SRB assay
[34] = tested on: SF-295; test: Anticancer activity against Homo sapiens (human) SF295 cells assessed as cell growth promotion at 10 uM after 48 hr by SRB assay
[35] = tested on: SF-539; test: Anticancer activity against Homo sapiens (human) SF539 cells assessed as cell growth promotion at 10 uM after 48 hr by SRB assay
[36] = tested on: SF-268; test: Anticancer activity against Homo sapiens (human) SF268 cells assessed as cell growth promotion at 10 uM after 48 hr by SRB assay
[37] = tested on: HT-29; test: Anticancer activity against Homo sapiens (human) HT-29 cells assessed as cell growth promotion at 10 uM after 48 hr by SRB assay
[38] = tested on: KM12; test: Anticancer activity against Homo sapiens (human) KM12 cells assessed as cell growth promotion at 10 uM after 48 hr by SRB assay
[39] = tested on: NCI-H460; test: Anticancer activity against Homo sapiens (human) NCI-H460 cells assessed as cell growth promotion at 10 uM after 48 hr by SRB assay
[40] = tested on: HL-60(TB); test: Anticancer activity against Homo sapiens (human) HL-60(TB) cells assessed as cell growth promotion at 10 uM after 48 hr by SRB assay

## COc1ccc(Nn2c(SCC(=O)Nc3nc(-c4ccc(Cl)cc4)cs3)nc(C)c2C)cc1
[1]
  Activity: 49.53%
[2]
  Activity: 48.91%
[3]
  Activity: -21.47%
[4]
  Activity: 86.14%
[5]
  Activity: 79.71%
[6]
  Activity: 16.16%
[7]
  Activity: 35.69%
[8]
  Activity: 79.62%
[9]
  Activity: 68.5%
[10]
  Activity: 67.16%
[11]
  Activity: 34.44%
[12]
  Activity: 52.04%
[13]
  Activity: 59.54%
[14]
  Activity: 81.45%
[15]
  Activity: 23.11%
[16]
  Activity: 30.81%
[17]
  Activity: 60.75%
[18]
  Activity: 26.17%
[19]
  Activity: 59.76%
[20]
  Activity: 27.81%
[21]
  Activity: 54.24%
[22]
  Activity: 79.56%
[23]
  Activity: 66.22%
[24]
  Activity: 38.65%
[25]
  Activity: 100.44%
[26]
  Activity: 41.94%
[27]
  Activity: 44%
[28]
  Activity: 35.7%
[29]
  Activity: 36.1%
[30]
  Activity: 26.88%
[31]
  Activity: 90.48%
[32]
  Activity: 50.36%
[33]
  Activity: 99.15%
[34]
  Activity: 43.89%
[35]
  Activity: 79.14%
[36]
  Activity: 66.13%
[37]
  Activity: 30.12%
[38]
  Activity: 43.08%
[39]
  Activity: 39.32%

## Cc1nc(SCC(=O)Nc2nc(-c3ccc(Cl)cc3)cs2)n(Nc2ccccc2)c1C
[1]
  Activity: 34.83%
[2]
  Activity: 46.91%
[3]
  Activity: 10.19%
[4]
  Activity: 70.58%
[5]
  Activity: 48.83%
[6]
  Activity: 27.14%
[7]
  Activity: 59.13%
[8]
  Activity: 65.41%
[9]
  Activity: 56.83%
[10]
  Activity: 39.25%
[11]
  Activity: 36.74%
[12]
  Activity: 49.37%
[13]
  Activity: 54.27%
[14]
  Activity: 68.56%
[15]
  Activity: 20.41%
[16]
  Activity: 35.93%
[17]
  Activity: 61.29%
[18]
  Activity: 21.05%
[19]
  Activity: 57.63%
[20]
  Activity: 29.45%
[21]
  Activity: 69.51%
[22]
  Activity: 65.21%
[23]
  Activity: 47.28%
[25]
  Activity: 48.49%
[26]
  Activity: 34.55%
[27]
  Activity: 28.85%
[29]
  Activity: 41.02%
[30]
  Activity: 27.56%
[40]
  Activity: 42.07%
[31]
  Activity: 84.99%
[32]
  Activity: 41%
[33]
  Activity: 99.3%
[34]
  Activity: 31.02%
[35]
  Activity: 35.42%
[36]
  Activity: 56.4%
[37]
  Activity: 25.29%
[38]
  Activity: 57.14%
[39]
  Activity: 52.96%
